Experimental data published in patent publication US10047098B2, “C5-C6-oxacyclic fused iminopyrimidinone compounds as bace inhibitors, compositions, and their use” (Merck Sharp & Dohme Corp., priority 2014, dated 2018).

Columns and labels:
[1] = biological target: purified human autoBACE-2 (Homo sapiens (Human), UniProt Q9Y5Z0); assay: BACE-2 Assay (BACE-HTRF assay); format: biochemical; conditions: Ki calculated from IC50 using the Cheng-Prusoff equation; QSY7-EISEVNLDAEFC-Eu-amide substrate, pH 5.0
purified human autoBACE-2, sequence (Q9Y5Z0 63-473 limits assumed): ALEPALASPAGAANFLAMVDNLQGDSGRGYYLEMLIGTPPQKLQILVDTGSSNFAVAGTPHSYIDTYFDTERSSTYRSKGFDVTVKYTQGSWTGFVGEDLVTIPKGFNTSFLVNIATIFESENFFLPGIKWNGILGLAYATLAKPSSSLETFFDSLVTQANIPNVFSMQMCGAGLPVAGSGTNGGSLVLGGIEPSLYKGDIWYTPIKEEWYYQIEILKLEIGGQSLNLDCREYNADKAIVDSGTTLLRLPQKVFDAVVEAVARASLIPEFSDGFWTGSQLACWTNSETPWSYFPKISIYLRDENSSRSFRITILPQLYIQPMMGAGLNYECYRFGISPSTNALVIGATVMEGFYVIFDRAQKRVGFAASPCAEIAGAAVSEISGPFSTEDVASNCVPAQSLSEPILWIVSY
Method in brief: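 Endpoint proteolysis of a QSY7/europium FRET peptide by purified human autoBACE-2, 5% DMSO final, read by time-resolved fluorescence at 620 nm after 320 nm excitation.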

[2] = biological target: Recombinant human soluble BACE1 catalytic domain (Homo sapiens (Human), UniProt P56817); assay: BACE1 HTRF FRET Assay; format: biochemical; conditions: Ki calculated from IC50 using the Cheng-Prusoff equation; QSY7-APPswe-Eu substrate, pH 5.0; read-out: BACE-1 Ki
Recombinant human soluble BACE1 catalytic domain, sequence (P56817 75-416): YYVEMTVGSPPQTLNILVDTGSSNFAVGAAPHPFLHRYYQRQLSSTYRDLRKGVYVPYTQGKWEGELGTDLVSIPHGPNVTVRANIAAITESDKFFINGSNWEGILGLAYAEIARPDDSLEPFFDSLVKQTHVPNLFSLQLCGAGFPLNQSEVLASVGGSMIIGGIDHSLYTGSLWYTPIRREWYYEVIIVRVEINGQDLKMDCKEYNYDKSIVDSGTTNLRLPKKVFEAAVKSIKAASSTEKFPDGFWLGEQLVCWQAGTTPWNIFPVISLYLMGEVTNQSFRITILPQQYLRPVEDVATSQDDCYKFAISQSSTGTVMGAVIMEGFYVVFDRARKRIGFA
Method in brief: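 Purified BACE1 catalytic domain (3 nM as added) is preincubated with inhibitor for 30 min at 30 °C in 20 mM Na-acetate pH 5.0, 10% glycerol, 0.1% Brij-35, 7.5% DMSO. QSY7-APP^swe-Eu substrate (200 nM final) is then cleaved for 1.5 h at 30 °C and read as time-resolved 620 nm fluorescence. IC50s come from nonlinear regression, and Ki from Cheng-Prusoff using substrate Km 8 μM.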

| Structure (SMILES) | Ki [1] [µM] | Ki [2] [µM] |
| --- | --- | --- |
| CN1C(=N)N[C@@]2(c3cc(Oc4ncncc4F)ccc3F)CO[C@@H](C3CC3)CC2C1=O (stereo partly drawn) [Example 58, (6R,8aS)-6-cyclopropyl-8a-(2-fluoro-5-((5-fluoropyrimidin-4-yl)oxy)phenyl)-2-imino-3-methylhexahydro-IH-pyrano[3,4-d]pyrimidin-4(4aH)-one] | 0.035 | 0.013 |
| COC[C@H]1C[C@H]2C(=O)N(C)C(=N)N[C@@]2(c2cc(Oc3cc(F)cnc3F)c(F)cc2F)CO1 [Example 59, (4aR,6R,8aS)-8a-(5-((2,5-difluoropyridin-3-yl)oxy)-2,4-difluorophenyl)-2-imino-6-(methoxymethyl)-3-methylhexahydro-1H-pyrano[3,4-d]pyrimidin-4(4aH)-one] | 0.02 | 0.003 |
| Cc1cnc(Oc2ccc(F)c([C@]34CO[C@@H](C5CC5)C[C@H]3C(=O)N(C)C(=N)N4)c2)c(F)c1 [Example 60, (4aR,6R,8aS)-6-cyclopropyl-8a-(2-fluoro-5-((3-fluoro-5-methylpyridin-2-yl)oxy)phenyl)-2-imino-3-methylhexahydro-1H-pyrano[3,4-d]pyrimidin-4(4aH)-one] | 0.125 | 0.121 |
| C[C@H]1C[C@H]2C(=O)N(C)C(=N)N[C@@]2(c2cc(O)ccc2F)CO1 [Example 64, (4aR,6S,8aS)-8a-(2-fluoro-5-hydroxyphenyl)-2-imino-3,6-dimethylhexahydro-1H-pyrano[3,4-d]pyrimidin-4(4aH)-one] | 0.0827 | 0.358 |
| COc1cncc(Oc2ccc(F)c([C@]34CO[C@@H](C)C[C@H]3C(=O)N(C)C(=N)N4)c2)n1 [Example 65, (4aR,6S,8aS)-8a-(2-fluoro-5-((6-methoxypyrazin-2-yl)oxy)phenyl)-2-imino-3,6-dimethylhexahydro-1H-pyrano[3,4-d]pyrimidin-4(4aH)-one] | 0.0158 | 0.0066 |
| C[C@H]1C[C@H]2C(=O)N(C)C(=N)N[C@@]2(c2cc(Oc3cnccn3)ccc2F)CO1 [Example 66, (4aR,6S,8aS)-8a-(2-fluoro-5-(pyrazin-2-yloxy)phenyl)-2-imino-3,6-dimethylhexahydro-1H-pyrano[3,4-d]pyrimidin-4(4aH)-one] | 0.0303 | 0.0118 |
| Cc1cncc(Oc2ccc(F)c([C@]34CO[C@@H](C)C[C@H]3C(=O)N(C)C(=N)N4)c2)n1 [Example 67, (4aR,6S,8aS)-8a-(2-fluoro-5-((6-methylpyrazin-2-yl)oxy)phenyl)-2-imino-3,6-dimethylhexahydro-1H-pyrano[3,4-d]pyrimidin-4(4aH)-one] | 0.0252 | 0.0133 |
| C[C@H]1C[C@H]2C(=O)N(C)C(=N)N[C@@]2(c2cc(Oc3ccc(F)cn3)ccc2F)CO1 [Example 68, (4aR,6S,8aS)-8a-(2-fluoro-5-((5-fluoropyridin-2-yl)oxy)phenyl)-2-imino-3,6-dimethylhexahydro-1H-pyrano[3,4-d]pyrimidin-4(4aH)-one] | 0.0713 | 0.157 |
| C[C@H]1C[C@H]2C(=O)N(C)C(=N)N[C@@]2(c2cc(Oc3ncncc3F)ccc2F)CO1 [Example 69, (4aR,6S,8aS)-8a-(2-fluoro-5-((5-fluoropyrimidin-4-yl)oxy)phenyl)-2-imino-3,6-dimethylhexahydro-1H-pyrano[3,4-d]pyrimidin-4(4aH)-one] | 0.00678 | 0.011 |
| Cc1nccnc1Oc1ccc(F)c([C@]23CO[C@@H](C)C[C@H]2C(=O)N(C)C(=N)N3)c1 [Example 70, (4aR,6S,8aS)-8a-(2-fluoro-5-((3-methylpyrazin-2-yl)oxy)phenyl)-2-imino-3,6-dimethylhexahydro-1H-pyrano[3,4-d]pyrimidin-4(4aH)-one] | 0.235 | 0.402 |
| COc1ccnc(Oc2ccc(F)c([C@]34CO[C@@H](C)C[C@H]3C(=O)N(C)C(=N)N4)c2)c1 [Example 71, (4aR,6S,8aS)-8a-(2-fluoro-5-((4-methoxypyridin-2-yl)oxy)phenyl)-2-imino-3,6-dimethylhexahydro-1H-pyrano[3,4-d]pyrimidin-4(4aH)-one] | 0.015 | 0.0399 |
| C[C@H]1C[C@H]2C(=O)N(C)C(=N)N[C@@]2(c2cc(Oc3ncccc3Cl)ccc2F)CO1 [Example 72, (4aR,6S,8aS)-8a-(5-((3-chloropyridin-2-yl)oxy)-2-fluorophenyl)-2-imino-3,6-dimethylhexahydro-1H-pyrano[3,4-d]pyrimidin-4(4aH)-one] | 0.00967 | 0.0376 |
| Cc1cccnc1Oc1ccc(F)c([C@]23CO[C@@H](C)C[C@H]2C(=O)N(C)C(=N)N3)c1 [Example 73, (4aR,6S,8aS)-8a-(2-fluoro-5-((3-methylpyridin-2-yl)oxy)phenyl)-2-imino-3,6-dimethylhexahydro-lH-pyrano[3,4-d]pyrimidin-4(4aH)-one] | 0.0323 | 0.295 |
| C[C@H]1C[C@H]2C(=O)N(C)C(=N)N[C@@]2(c2cc(Oc3ccncc3F)ccc2F)CO1 [Example 74, (4aR,6S,8aS)-8a-(2-fluoro-5-((3-fluoropyridin-4-yl)oxy)phenyl)-2-imino-3,6-dimethylhexahydro-1H-pyrano[3,4-d]pyrimidin-4(4aH)-one] | 0.0315 | 0.0443 |
| C[C@H]1C[C@H]2C(=O)N(C)C(=N)N[C@@]2(c2cc(Oc3ccccn3)ccc2F)CO1 [Example 76, (4aR,6S,8aS)-8a-(2-fluoro-5-(pyridin-2-yloxy)phenyl)-2-imino-3,6-dimethylhexahydro-1H-pyrano[3,4-d]pyrimidin-4(4aH)-one] | 0.0134 | 0.0317 |
| C[C@H]1C[C@H]2C(=O)N(C)C(=N)N[C@@]2(c2cc(Oc3cc4ccccc4cn3)ccc2F)CO1 [Example 77, (4aR,6S,8aS)-8a-(2-fluoro-5-(isoquinolin-3-yloxy)phenyl)-2-imino-3,6-dimethylhexahydro-1H-pyrano[3,4-d]pyrimidin-4(4aH)-one] | 0.242 | 1.45 |
| C[C@H]1C[C@H]2C(=O)N(C)C(=N)N[C@@]2(c2cc(Oc3cncc(F)c3)ccc2F)CO1 [Example 78, (4aR,6S,8aS)-8a-(2-fluoro-5-((5-fluoropyridin-3-yl)oxy)phenyl)-2-imino-3,6-dimethylhexahydro-1H-pyrano[3,4-d]pyrimidin-4(4aH)-one] | 0.0329 | 0.02 |
| C[C@H]1C[C@H]2C(=O)N(C)C(=N)N[C@@]2(c2cc(Oc3ncc(F)cc3F)ccc2F)CO1 [Example 79, (4aR,6S,8aS)-8a-(5-((3,5-difluoropyridin-2-yl)oxy)-2-fluorophenyl)-2-imino-3,6-dimethylhexahydro-1H-pyrano[3,4-d]pyrimidin-4(4aH)-one] | 0.0413 | 0.0435 |
| C[C@H]1C[C@H]2C(=O)N(C)C(=N)N[C@@]2(c2cc(Oc3cc(F)cnc3F)ccc2F)CO1 [Example 80, (4aR,6S,8aS)-8a-(5-((2,5-difluoropyridin-3-yl)oxy)-2-fluorophenyl)-2-imino-3,6-dimethylhexahydro-1H-pyrano[3,4-d]pyrimidin-4(4aH)-one] | 0.0223 | 0.0085 |
| C[C@H]1C[C@H]2C(=O)N(C)C(=N)N[C@@]2(c2cc(Oc3cccnc3)ccc2F)CO1 [Example 81, (4aR,6S,8aS)-8a-(2-fluoro-5-(pyridin-3-yloxy)phenyl)-2-imino-3,6-dimethylhexahydro-1H-pyrano[3,4-d]pyrimidin-4(4aH)-one] | 0.0207 | 0.0268 |
